In patent publication US9051351B2, “Hepatocyte growth factor mimics as therapeutic agents” (Washington State University, priority 2011, dated 2015):
“Also recorded” adds a separate entry of the source. Where a SMILES comes first, the peptide text is derived from it. [ ]: non-standard residue; d: D form. dNle = CCCC[C@@H](N)C(=O)O; Ahx = NCCCCCC(=O)O

Legend:
[1] = Blood stability in heparinized rat blood; format: in vitro ADME; conditions: 37° C.; single phase exponential decay
Experimental: At the end of each incubation, 20 μL of […]

[2] = tested on: MDCK cells; experiment: HGF-dependent MDCK cell proliferation (MTT); format: cell-based, canine; conditions: analog 10^−10M, HGF 10 ng/ml, 4 days
Experimental: 5000 MDCK cells were seeded into the wells of a 96 well plates in 10% FBS DMEM. To induce cellular quiescence, the cells were serum deprived for 24 h prior to initiating the treatments. Following serum starvation, 10 ng/ml HGF alone and with various concentrations of 6-AH analogs or PBS vehicle were added to the media. The cells were allowed to grow under these conditions for 4 days with a daily addition of 6-AH analogs. On the fourth day, 1 mg/ml of […] (MTT, Sigma-Aldrich) prepared in PBS was added to the cells and incubated for 4 h. Dimethyl sulfoxide diluted in a 0.01M glycine buffer was added to solubilize the cell membranes and the absorbance of reduced MTT in the buffer was quantitated at 590 nm using a plate reader (Biotek Synergy 2, Winooski, Vt.). HGF-dependent proliferation was determined by subtracting the basal proliferation (in the absence of HGF) from total proliferation rates in groups containing HGF.

[3] = rat, in vivo, iv, 24 mg/kg
Experimental: Male Sprague-Dawley rats (250+ g) were allowed food (Harlan Teklad rodent diet) and water ad libitum in our AAALAC certified animal facility. Rats were housed in temperature-controlled rooms with a 12 h light/dark cycle. The right jugular veins of the rats were catheterized with sterile polyurethane Hydrocoat™ catheters (Access Technologies, Skokie, Ill., USA) under ketamine (Fort Dodge Animal Health, Fort Dodge, Iowa, USA) and isoflurane (Vet One™, MWI, Meridian, Id., USA) anesthesia. The catheters were exteriorized through the dorsal skin. The catheters were flushed with heparinized saline before and after blood sample collection and filled with heparin-glycerol locking solution (6 mL glycerol, 3 mL saline, 0.5 mL gentamycin (100 mg/mL), 0.5 mL heparin (10,000 u/mL)) when not used for more than 8 h. The animals were allowed to recover from surgery for several days before use in any experiment, and were fasted overnight prior to the pharmacokinetic experiment. […]
Pharmacokinetic analysis was performed using data from individual rats. The mean and standard deviation (SD) were calculated for the group. Noncompartmental pharmacokinetic parameters were calculated from serum drug concentration-time profiles by use of WinNonlin® software (Pharsight, Mountain View, Calif., USA).

[4] = target: T1, human HGF (Homo sapiens, UniProt P14210); experiment: HGF dimerization (PAGE, silver staining); format: biochemical; conditions: analog 10^−10 M, heparin, 30 minute incubation
T1 construct: purchased R&D Systems (Minneapolis, Minn.)
Experimental: HGF dimerization was assessed using PAGE followed by silver staining (Kawas et al., 2011). Human HGF at a concentration of 0.08 ng/μl with or without 6-AH analogs was incubated with heparin at a final concentration of 5 μg/ml. Loading buffer was then added to each sample and the mixture separated by native PAGE using gradient Criterion XT precast gels (4-12% Bis-Tris; Biorad Laboratories, Hercules, Calif.). Next the gel was silver stained for the detection of the HGF monomers and dimers. Bands were quantitated from digital images using a UVP phosphoimager (Upland, Calif.).

[5] = tested on: B16-F10 murine melanoma cells; experiment: B16-F10 melanoma lung colony formation; format: in vivo, mouse; conditions: C57BL/6 mice; daily IP 10 μg/kg/day or 100 μg/kg/day, 14 days
Experimental: Six to eight month old C57BL/6 mice were injected with 400,000 B16-F10 cells in 200 μl PBS by tail vein injection and subsequently received daily intraperitoneal injections of either D-Nle-X-Cys-NH—(CH2)5—CONH2 (10 μg/kg and 100 μg/kg) or a PBS vehicle control. Two weeks later, mice were anesthetized and lungs were perfused with PBS and removed. Photos were taken and lungs were solubilized in 1% Triton x-100, 20 mM Tris, 0.15 M NaCl, 2 mM EDTA, and 0.02% sodium azide. Samples were disrupted by sonication (Mixonix, Farmingdale, N.Y.) and spun. The supernatant was transferred to a 96 well plate and melanin absorbance at […] was measured using a plate reader.

[6] = tested on: hippocampal neurons; experiment: Whole-cell recordings of mEPSCs in dissociated hippocampal neurons; format: cell-based, rat; conditions: Dihexa, Hinge 10^−12 M; HGF 10 ng/ml; 5 days
[7] = tested on: hippocampal neurons; experiment: Dendritic spine counts (spinogenesis) in mRFP-β-actin transfected dissociated hippocampal neurons; format: cell-based, rat
Experimental: Hippocampal neurons (2×10^5 cells per square cm) were cultured from P1 Sprague Dawley rats on plates coated with poly-L-lysine from Sigma (St. Louis, Mo.; molecular weight 300,000). […] Each experiment was repeated at least three times using independent culture preparations. […] Hippocampal neurons (2×10^5 cells per square centimeter) were cultured from P1-2 Sprague Dawley rats on plates coated with poly-L-lysine from Sigma (St. Louis, Mo.; molecular weight 300,000). Hippocampal neurons were maintained in Neurobasal A media from Invitrogen (Carlsbad, Calif.) supplemented with B27 from Invitrogen, 0.5 mM L-glutamine, and […] cytosine-D-arabinofuranoside from Sigma added at 2 days in vitro. Hippocampal neurons were then cultured a further 3-7 days, at which time they were either transfected or treated with various pharmacological reagents as described in the text or figure legends. Neurons were transfected with mRFP-β-actin on day in vitro 6 […] using LipofectAMINETM 2000 (Invitrogen) according to the manufacturer's protocol. […] On DIV7 the cells were treated with vehicle (H20) or peptides (as described in the text) added to media. […] Five 50 μm long segments of dendrite from at least 10 neurons per data point were analyzed for each data point reported. Each experiment was repeated at least three times using independent culture preparations. […] A target sequence for c-Met was designed using RNAi central design program (see the website located at […].edu/). The target sequence […] NO: 2) was inserted into pSUPER vector (Oligoengine, Seattle Wash.) which drives endogenous production of shRNA under the H1 promoter. The shRNA was transfected into cells using the lipofectamine method described above. Verification of receptor knockdown was done by creating a c-[…]-Myc tagged gene product using the Gateway cloning system (Invitrogen). The Met protein coding sequence was cloned from rat whole brain cDNA using primers obtained from Integrated DNA Technologies, Inc. The amplified product was gel purified and a band corresponding to 190 kDa band excised and cloned into a […] destination vector (Gateway). Hippocampal neurons (2×10^5 cells per square cm) were cultured from P1 Sprague Dawley rats on plates coated with poly-L-lysine from Sigma (St. Louis, Mo.; molecular weight […]).

[8] = tested on: scopolamine treated rats; experiment: Morris water maze, scopolamine amnesia model; format: in vivo, rat; conditions: for mean latency to find the pedestal: icv, Dihexa, Hinge 300 pmol, scopolamine 70 nmol
Experimental: Swim speed was determined from these values.

[9] = tested on: MDCK cells; experiment: Inhibition of HGF-dependent scattering in MDCK cells; format: cell-based, canine
Experimental: (§1) MDCK cells were grown to 100% confluency on the coverslips in six-well plates and washed twice with PBS. The confluent coverslips were then aseptically transferred to new six well plates containing 900 μl serum free DMEM. Norleual, Hinge peptide, and/or HGF (20 ng/ml) were added to appropriate wells. Control wells received PBS vehicle. Plates were incubated at 37° C. with 5% CO2 for 48 hours. Media was removed and cells were fixed with methanol. Cells were stained with Diff-Quik Wright-Giemsa (Dade-Behring, Newark, Del.) and digital images were taken. Coverslips were removed with forceps and more digital images were captured. Pixel quantification of images was achieved using Image J and statistics were performed using Prism 5 and InStat v.3.05.
as §1, with “h.” for “hours.”, “Cells were stained with Diff-Quik Wright-Giemsa (Dade-Behring, Newark, Del.) and digital images were taken. Coverslips were removed with forceps and more digital images were captured.” left out, “v.3.05 (GraphPad; San Diego, Calif.).” for “v.3.05.”

T1 sequence (P14210 32-728): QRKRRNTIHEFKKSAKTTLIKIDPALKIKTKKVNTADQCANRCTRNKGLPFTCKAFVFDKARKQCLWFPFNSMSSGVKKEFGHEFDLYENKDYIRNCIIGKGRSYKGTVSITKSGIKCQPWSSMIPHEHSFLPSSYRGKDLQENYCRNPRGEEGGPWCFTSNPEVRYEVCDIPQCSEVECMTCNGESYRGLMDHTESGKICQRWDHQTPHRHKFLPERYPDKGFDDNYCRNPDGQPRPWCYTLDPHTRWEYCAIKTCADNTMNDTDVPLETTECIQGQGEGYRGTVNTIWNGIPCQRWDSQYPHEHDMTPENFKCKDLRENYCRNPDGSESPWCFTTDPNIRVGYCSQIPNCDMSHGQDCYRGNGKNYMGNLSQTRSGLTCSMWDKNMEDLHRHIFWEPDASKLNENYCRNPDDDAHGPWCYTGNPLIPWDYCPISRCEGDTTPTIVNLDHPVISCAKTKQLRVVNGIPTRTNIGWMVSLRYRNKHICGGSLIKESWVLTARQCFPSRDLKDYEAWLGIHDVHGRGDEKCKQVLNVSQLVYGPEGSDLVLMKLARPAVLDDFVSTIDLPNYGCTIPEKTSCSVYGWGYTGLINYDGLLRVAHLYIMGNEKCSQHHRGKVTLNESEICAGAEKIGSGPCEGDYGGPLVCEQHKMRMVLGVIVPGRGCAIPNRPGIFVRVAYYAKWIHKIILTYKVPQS

Row | Compound | stability t1/2 in heparinized rat blood [1] [min] | inhibition of HGF-dependent MDCK cell proliferation [2] | Cp^0 [3] [ng/mL] | KE [3] [min⁻¹] | inhibition of HGF dimerization [4] | inhibition of HGF dimerization ([4]; listed as Tyr) | B16-F10 melanoma lung colonization [5] | inhibition of HGF dimerization ([4]; listed as Cys) | mean frequency of mEPSCs [6] | inhibition of HGF-, Nle1-AngIV- and Dihexa-induced spinogenesis by Hinge ([7]; Hinge 10^−12 M, HGF 10 ng/ml, Nle1-AngIV or Dihexa 10^−12 M) | effect of Hinge alone on spinogenesis ([7]; wide range of doses) | mean latency to find the pedestal ([8]; day one of training) [s] | mean latency to find the pedestal ([8]; final day of training (day 8)) [s] | mean latency to find the pedestal ([8]; fourth day of training) [s] | latency to escape, Morris water maze (FIG. 21) ([8]; i.c.v. injections, 8 days of training) | inhibition of MDCK cell scattering by Hinge [9]
1 | CCCC[C@@H](N)C(=O)N[C@@H](Cc1ccc(O)cc1)C(=O)N[C@H](C(=O)NCCCCCC(N)=O)[C@@H](C)CC (H-[dNle]YI[Ahx]-NH2) | 79.97 | marked inhibitory activity | 68.2 ± 32.2 | 0.001 ± 0.0002 | completely block HGF dimer formation | statistically different than the HGF treated group |  |  |  |  |  |  |  |  |  | 
2 | CCCC[C@@H](N)C(=O)N[C@@H](CS)C(=O)N[C@H](C(=O)NCCCCCC(N)=O)[C@@H](C)CC [D-Nle-Cys-Ile-NH—(CH2)5—CONH2] (H-[dNle]CI[Ahx]-NH2) |  | marked inhibitory activity |  |  | completely block HGF dimer formation |  | suppressed pulmonary colonization; also recorded: radically prevented lung colonization; also recorded: obvious reduction in melanoma colonies | statistically different than the HGF treated group |  |  |  |  |  |  |  | 
3 | Hinge: novel HGF antagonist Hinge (DYIRNC, SEQ ID NO: 3); elsewhere Hinge peptide (KDYIRN), the dimerization domain of HGF (Synthetic hinge peptide) [reference compound] |  |  |  |  |  |  |  |  | 4.51±0.47 | effectively inhibit spine formation; also recorded: inhibits HGF-induced spinogenesis; also recorded: inhibits Nle1-AngIV-induced spinogenesis; also recorded: inhibits Dihexa-induced spinogenesis | no effect on spinogenesis over a wide range of doses; also recorded: does not affect spinogenesis | 111.1 | 46.1 | 78.3 | no effect on learning | inhibit scattering of Madin-Darby canine kidney (MDCK) cells
